Source: patent US6525001B1, “Substituted pyrimidine and pyridine herbicides” (Mid-American Commercialization Corporation, priority 1997, dated 2003)

Tests used:
Format in all cases: in vivo
[1] = system: lambsquarters (Chenopodium album); test: Test C; set-up: key: 0 was no effect; 100 was complete control; details: PREEMERGENCE
[2] = system: large crabgrass (Digitaria sanguinalis); test: Test C; set-up: key: 0 was no effect; 100 was complete control; details: PREEMERGENCE
[3] = system: sandbur (Cenchrus echinatus); test: Test E pre-/postemergence/post directed; set-up: key: 0 is no injury; 100 is complete control; details: POSTEMERGENCE, Rate 32 g/ha
Procedure, shortened: (§1)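 Greenhouse pot-grown plants; compound in non-phytotoxic solvent with surfactant applied preemergence to soil within one day of planting, postemergence at two to four leaf stage (three to twenty cm), or post-directed to plant base and soil. Visual injury rated 13 to 21 days after application, 0 (none) to 100 (complete control).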

[4] = system: purple nutsedge (Cyperus rotundus); test: Test E pre-/postemergence/post directed; set-up: key: 0 is no injury; 100 is complete control
Procedure, shortened: as §1

[5] = system: hairy beggarticks (Bidens pilosa); test: Test C; set-up: key: 0 was no effect; 100 was complete control; details: PREEMERGENCE
[6] = system: wild poinsettia (Euphorbia heterophylla); test: Test C; set-up: key: 0 was no effect; 100 was complete control; details: PREEMERGENCE
[7] = system: fall panicum (Panicum dichotomiflorum); test: Test C; set-up: key: 0 was no effect; 100 was complete control; details: PREEMERGENCE
[8] = system: field bindweed (Convolvulus arvensis); test: Test C; set-up: key: 0 was no effect; 100 was complete control; details: PREEMERGENCE
[9] = system: johnsongrass (Sorghum halepense); test: Test C; details: PREEMERGENCE
[10] = system: cocklebur (Xanthium strumarium); test: Test C; set-up: key: 0 was no effect; 100 was complete control; details: PREEMERGENCE
[11] = system: common ragweed (Ambrosia elatior); test: Test C; set-up: key: 0 was no effect; 100 was complete control; details: PREEMERGENCE
[12] = system: alexandergrass (Brachiaria plantaginea); test: Test E pre-/postemergence/post directed
Procedure, shortened: as §1

[13] = system: surinam grass (Brachiaria decumbens); test: Test E pre-/postemergence/post directed
Procedure, shortened: as §1

[14] = system: common groundsel (Senecio vulgaris); test: Test E pre-/postemergence/post directed; details: POSTEMERGENCE
Procedure, shortened: as §1

[15] = system: velvetleaf (Abutilon theophrasti); test: Test C; set-up: key: 0 was no effect; 100 was complete control; details: PREEMERGENCE

Which “Plant response rating, Lambsquarters” value ([1]; Rate 35 g/ha) does the source give for `Cc1cnc(-n2ccc(C(F)(F)F)n2)nc1Cc1cccc(C(F)(F)F)c1` [Example 2, 5-methyl-4-[[3-(trifluoromethyl)phenyl]methyl]-2-[3-(trifluoromethyl)-1H-pyrazol-1-yl]pyrimidine] here?
Its value is 0.

And the “Plant response rating, Lambsquarters” value ([1]; Rate 140 g/ha)?
Its value is 100.

What about the “Plant response rating, Large crabgrass” value ([2]; Rate 35 g/ha) of the same molecule?
The value was 0.

What about the “Plant response rating, Large crabgrass” value ([2]; Rate 70 g/ha) of the same molecule?
The value was 5.

And the “Plant response rating, Large crabgrass” value ([2]; Rate 140 g/ha)?
The value was 100.

And the “Plant response rating, Sandbur” value [3]?
Its value is 0.

And the “Plant response rating, Purple nutsedge” value ([4]; POSTEMERGENCE, Rate 32 g/ha)?
The value was 0.

What about the “Plant response rating, Purple nutsedge” value ([4]; POSTEMERGENCE, Rate 64 g/ha) of the same molecule?
The value was 0.

What about the “Plant response rating, Purple nutsedge” value ([4]; POSTEMERGENCE, Rate 125 g/ha) of the same molecule?
The value was 0.

And the “Plant response rating, Purple nutsedge” value ([4]; POSTEMERGENCE, Rate 250 g/ha)?
Its value is 0.

And the “Plant response rating, Purple nutsedge” value ([4]; POSTEMERGENCE, Rate 500 g/ha)?
Its value is 0.

What about the “Plant response rating, Purple nutsedge” value ([4]; PREEMERGENCE, Rate 32 g/ha) of the same molecule?
The value was 0.

What about the “Plant response rating, Purple nutsedge” value ([4]; PREEMERGENCE, Rate 64 g/ha) of the same molecule?
The value was 0.

And the “Plant response rating, Purple nutsedge” value ([4]; PREEMERGENCE, Rate 125 g/ha)?
The value was 0.

What about the “Plant response rating, Purple nutsedge” value ([4]; PREEMERGENCE, Rate 250 g/ha) of the same molecule?
Its value is 0.

What about the “Plant response rating, Purple nutsedge” value ([4]; PREEMERGENCE, Rate 500 g/ha) of the same molecule?
The value was 0.

And the “Plant response rating, H. beggarticks” value ([5]; Rate 35 g/ha)?
The value was 40.

And the “Plant response rating, H. beggarticks” value ([5]; Rate 70 g/ha)?
Its value is 40.

What about the “Plant response rating, H. beggarticks” value ([5]; Rate 140 g/ha) of the same molecule?
Its value is 100.

And the “Plant response rating, Wild poinsettia” value ([6]; Rate 35 g/ha)?
The value was 0.

What about the “Plant response rating, Wild poinsettia” value ([6]; Rate 70 g/ha) of the same molecule?
The value was 5.

What about the “Plant response rating, Wild poinsettia” value ([6]; Rate 140 g/ha) of the same molecule?
The value was 45.

And the “Plant response rating, Fall panicum” value ([7]; Rate 35 g/ha)?
Its value is 0.

And the “Plant response rating, Fall panicum” value ([7]; Rate 70 g/ha)?
Its value is 5.

And the “Plant response rating, Fall panicum” value ([7]; Rate 140 g/ha)?
Its value is 100.

And the “Plant response rating, Field bindweed” value ([8]; Rate 35 g/ha)?
The value was 0.

What about the “Plant response rating, Field bindweed” value ([8]; Rate 70 g/ha) of the same molecule?
The value was 30.

What about the “Plant response rating, Field bindweed” value ([8]; Rate 140 g/ha) of the same molecule?
The value was 100.

And the “Plant response rating, Johnsongrass” value ([9]; Rate 35 g/ha)?
Its value is 5.

And the “Plant response rating, Johnsongrass” value ([9]; Rate 70 g/ha)?
The value was 5.

What about the “Plant response rating, Johnsongrass” value ([9]; Rate 140 g/ha) of the same molecule?
Its value is 60.

And the “Plant response rating, Cocklebur” value ([10]; Rate 35 g/ha)?
The value was 0.

And the “Plant response rating, Cocklebur” value ([10]; Rate 140 g/ha)?
Its value is 10.

And the “Plant response rating, Common ragweed” value ([11]; Rate 35 g/ha)?
The value was 0.

What about the “Plant response rating, Common ragweed” value ([11]; Rate 70 g/ha) of the same molecule?
Its value is 0.

And the “Plant response rating, Common ragweed” value ([11]; Rate 140 g/ha)?
Its value is 50.

And the “Plant response rating, Alexandergrass” value ([12]; POSTEMERGENCE, Rate 32 g/ha)?
The value was 20.

And the “Plant response rating, Alexandergrass” value ([12]; POSTEMERGENCE, Rate 64 g/ha)?
The value was 30.

And the “Plant response rating, Alexandergrass” value ([12]; POSTEMERGENCE, Rate 125 g/ha)?
Its value is 30.

And the “Plant response rating, Alexandergrass” value ([12]; POSTEMERGENCE, Rate 250 g/ha)?
The value was 80.

What about the “Plant response rating, Alexandergrass” value ([12]; POSTEMERGENCE, Rate 500 g/ha) of the same molecule?
Its value is 95.

What about the “Plant response rating, Alexandergrass” value ([12]; PREEMERGENCE, Rate 32 g/ha) of the same molecule?
Its value is 50.

What about the “Plant response rating, Alexandergrass” value ([12]; PREEMERGENCE, Rate 64 g/ha) of the same molecule?
The value was 90.

And the “Plant response rating, Surinam grass” value ([13]; POSTEMERGENCE, Rate 32 g/ha)?
The value was 35.

What about the “Plant response rating, Surinam grass” value ([13]; POSTEMERGENCE, Rate 64 g/ha) of the same molecule?
Its value is 50.

What about the “Plant response rating, Surinam grass” value ([13]; POSTEMERGENCE, Rate 125 g/ha) of the same molecule?
Its value is 50.

What about the “Plant response rating, Surinam grass” value ([13]; POSTEMERGENCE, Rate 250 g/ha) of the same molecule?
Its value is 70.

And the “Plant response rating, Surinam grass” value ([13]; POSTEMERGENCE, Rate 500 g/ha)?
Its value is 80.

What about the “Plant response rating, Surinam grass” value ([13]; PREEMERGENCE, Rate 32 g/ha) of the same molecule?
Its value is 50.

And the “Plant response rating, Surinam grass” value ([13]; PREEMERGENCE, Rate 64 g/ha)?
Its value is 90.

And the “Plant response rating, Com. groundsel” value ([14]; Rate 64 g/ha)?
Its value is 20.

And the “Plant response rating, Com. groundsel” value ([14]; Rate 125 g/ha)?
The value was 20.

What about the “Plant response rating, Com. groundsel” value ([14]; Rate 250 g/ha) of the same molecule?
The value was 40.

What about the “Plant response rating, Com. groundsel” value ([14]; Rate 500 g/ha) of the same molecule?
Its value is 75.

And the “Plant response rating, Velvetleaf” value ([15]; Rate 35 g/ha)?
Its value is 0.

And the “Plant response rating, Velvetleaf” value ([15]; Rate 70 g/ha)?
Its value is 5.

And the “Plant response rating, Velvetleaf” value ([15]; Rate 140 g/ha)?
Its value is 50.
